Experimental data: the NIST ThermoML archive (doi:10.1016/j.fluid.2010.09.023)
± gives the expanded uncertainty stated by the source. Each block holds one molecule with its values, some of them ahead of it.

Conditions: Liquid
[1] = 312.59 K, Closed cell (Static) method

Structure (SMILES): C=C(C)C [2-methylpropene]
vapor or sublimation pressure [1]: 467.1 ± 3.2 kPa

Structure (SMILES): C=CCC [1-butene]
vapor or sublimation pressure [1]: 448.3 ± 3.2 kPa

Structure (SMILES): CCOC(C)(C)C [2-ethoxy-2-methylpropane]
vapor or sublimation pressure (312.83 K, Ebulliometric method (Recirculating still)): 30.95 ± 0.33 kPa
vapor or sublimation pressure (312.84 K, Closed cell (Static) method): 31.9 ± 2.8 kPa
vapor or sublimation pressure (330.44 K, Ebulliometric method (Recirculating still)): 60.25 ± 0.34 kPa
vapor or sublimation pressure (338.77 K, Ebulliometric method (Recirculating still)): 80.14 ± 0.38 kPa
vapor or sublimation pressure (343.01 K, Ebulliometric method (Recirculating still)): 92 ± 0.42 kPa
vapor or sublimation pressure (346.26 K, Ebulliometric method (Recirculating still)): 102.08 ± 0.43 kPa
vapor or sublimation pressure (358.31 K, Closed cell (Static) method): 147.9 ± 2.8 kPa

Structure (SMILES): CCC#N [propanenitrile]
vapor or sublimation pressure (307.78 K, Closed cell (Static) method): 9.47 ± 2.8 kPa
vapor or sublimation pressure (312.5 K, Closed cell (Static) method): 11.9 ± 2.8 kPa
vapor or sublimation pressure (312.58 K, Closed cell (Static) method): 11.9 ± 2.8 kPa
vapor or sublimation pressure (313.15 K, Closed cell (Static) method): 12.5 ± 2.8 kPa
vapor or sublimation pressure (313.15 K, Ebulliometric method (Recirculating still)): 12.72 ± 0.29 kPa
vapor or sublimation pressure (322 K, Closed cell (Static) method): 17.4 ± 2.8 kPa
vapor or sublimation pressure (339.57 K, Ebulliometric method (Recirculating still)): 36.51 ± 0.3 kPa
vapor or sublimation pressure (353.83 K, Ebulliometric method (Recirculating still)): 60.04 ± 0.33 kPa
vapor or sublimation pressure (358.33 K, Closed cell (Static) method): 69.6 ± 2.8 kPa
vapor or sublimation pressure (358.37 K, Ebulliometric method (Recirculating still)): 69.81 ± 0.36 kPa
vapor or sublimation pressure (364.8 K, Ebulliometric method (Recirculating still)): 85.5 ± 0.39 kPa
vapor or sublimation pressure (370.9 K, Ebulliometric method (Recirculating still)): 103.12 ± 0.4 kPa

Now from value to molecule:

vapor or sublimation pressure (322.01 K, Closed cell (Static) method): 479.5 ± 3.2 kPa
Structure (SMILES): CCCC [butane]

vapor or sublimation pressure (307.79 K, Closed cell (Static) method): 460.8 ± 3.2 kPa
Structure (SMILES): CC(C)C [2-methylpropane]
